The subject of data set [1] is breast cancer. As to the kind of experiment: Murine models of breast cancer. The note with it: mouse, in vivo.
Data set [2] concerns human foreskin fibroblasts, AH1F cells. As to the kind of experiment: Cell viability of fibroblast monolayers in matrix assembly assays (Cell Titer-Glo / AlamarBlue). It is filed as cell-based. The note with it: for cell viability: doses ranging from 1 to 20 μM. On the procedure:
Microtiter fibronectin matrix assembly assays: Exogenous plasma fibronectin matrix assembly assay: Binding and incorporation of AlexaFluor® 488-plasma fibronectin (A488-FN) to fibroblast monolayers (human foreskin fibroblasts, AH1F cells was carried out using methods known in the art. Briefly, fibroblasts (60000 per well) were allowed to adhere and spread for 2 hours in microtiter plates in 2% fetal calf serum (FCS)-containing DMEM. Peptides or modulators to be tested were added followed by 28 nM A488-FN. Cell monolayers with or without peptides and A488FN were incubated overnight at 37° C. with 5% CO2. Cell monolayers in microwells were washed with PBS or HBSS containing Ca^2+, Mg^2+. Fluorescence in 96-well plates was read using a microplate reader using bottom-readout capabilities at 485 nm excitation and 525 nm emission with 20 nm bandwidths. To estimate cell viability per well after the washes and measurement of fluorescence, an equal volume of luminescence reagent (Cell Titer-Glo®) was added followed by quantification of luminescence. Fluorescence of wells to which A488FN had not been added, i.e. intrinsic fluorescence of the cell monolayer was subtracted from fluorescence values of wells containing ligand. Data is presented respectively for fibronectin fibrillogenesis or cell viability as percent of fluorescence or luminescence values for wells with no peptides. Microplate microscopy was used to ascertain that fluorescence measurements correspond to fibrillary fibronectin.
Endogenous (cellular) fibronectin assembly assay: This immunochemical assay measures the ECM incorporation of EDA-containing fibronectin synthesized by human fibroblasts and human proximal tubular epithelial cells. Human proximal epithelial cells, HK-2 cells, were obtained from ATCC (CRL-2190). The EDA+ fibronectin is a splice variant synthesized and secreted by a variety of cells mostly during embryonic development and during wound healing, ECM remodeling, or fibrotic conditions in the adult. Fibroblasts (AH1F) were cultured in DMEM (Gibco) containing 10% fetal calf serum, and human proximal tubular epithelial cells (HK-2) were cultured in keratinocyte serum free medium (KSFM, containing pituitary extract and rEGF, Invitrogen/Thermo Fisher). Both media also contained 2.5 mM glutamine, 100 IU/ml penicillin, and 100 μg/ml streptomycin. […] Fluorescence of AlamarBlue® was read at 555 nm excitation and 585 nm emission. […] Similar to the measurement of exogenous A488-FN fluorescence, A488-EDA fluorescence was read using microplate reader equipped with bottom-readout capabilities at 485 nm excitation and 525 nm emission. […]

Data set [3] concerns the target human plasma FN. Description: Isothermal Titration calorimetry (ITC) of peptide binding to fibronectin. The note with it: pH 7.4 PBS, 25° C., triplicate. The procedure:
Isothermal Titration calorimetry (ITC): ITC experiments were performed using a VP-ITC microcalorimeter (MicroCal, LLC) with a cell volume of 2.2 mL. In a typical experiment, the cell was filled with 1.4 mL of 2 μM human plasma FN and the syringe was filled with 1 mL of 28 μM FUD or PEG-FUD peptides. The temperature was set to 25° C. The titration experiment was performed in 39 injections (1×1, 4×4, and 34×8 μL) delivered in 120 sec intervals. Prior to injection, both FN and the peptides were dialyzed in separate dialysis bags overnight into the same PBS buffer (pH 7.4) solution. Routine analysis involved discarding of the first data point and subtraction of peptide into PBS buffer control run. Data were fit using one set of sites model Lavenberg-Marquardt nonlinear regression in Origin 7.0.
The binding of 10 kDa, 20 kDa, and 40 kDa PEG-FUD to FN was studied using Isothermal Titration calorimetry (ITC). This technique was used to determine the thermodynamic parameters as well as the binding constant (Kd) of the interaction. The peptide was injected into a human plasma FN solution in PBS at pH 7.4 and 25° C. in triplicate runs. […] A Kd of 6 (±3) nM was detected for FUD:FN. […] Similar entropy change of −65 (±3) cal/mol, −74 (±7) cal/mol, −66 (±7) cal/mol, and −73 (±2) and enthalpy change of −31 (±1) kcal/mol, −34 (±2) kcal/mol, −30 (±1) kcal/mol, and −32.5 (±0.5) kcal/mol were detected for the interaction of FUD and 10 kDa, 20 kDa, and 40 kDa PEG-FUD with FN, respectively. […] This observation is contrary to the expectation of PEG attachment diminishing a drug's affinity for its binding partner and presents an unexpected but desired feature of the PEG-FUD peptide.
In general terms: ITC needs no label: the signal is the heat of the interaction.

The source of these data is patent publication US10828372B2, “Compositions and methods for the inhibition of fibrosis” (WISCONSIN ALUMNI RESEARCH FOUNDATION, priority 2017, dated 2020).

The term cell viability denotes a read-out of living cells in per cent, often relative to untreated cells. A lower cell viability goes with a greater loss of cells. As usually defined, the Kd is the free concentration of one partner at which half of the binding sites on the other are occupied at equilibrium, for simple one-to-one binding. Read a high Kd as lower affinity.

Where no end group is shown, it is not given here.

Sequence of human plasma FN (P02751 32-608 limits assumed): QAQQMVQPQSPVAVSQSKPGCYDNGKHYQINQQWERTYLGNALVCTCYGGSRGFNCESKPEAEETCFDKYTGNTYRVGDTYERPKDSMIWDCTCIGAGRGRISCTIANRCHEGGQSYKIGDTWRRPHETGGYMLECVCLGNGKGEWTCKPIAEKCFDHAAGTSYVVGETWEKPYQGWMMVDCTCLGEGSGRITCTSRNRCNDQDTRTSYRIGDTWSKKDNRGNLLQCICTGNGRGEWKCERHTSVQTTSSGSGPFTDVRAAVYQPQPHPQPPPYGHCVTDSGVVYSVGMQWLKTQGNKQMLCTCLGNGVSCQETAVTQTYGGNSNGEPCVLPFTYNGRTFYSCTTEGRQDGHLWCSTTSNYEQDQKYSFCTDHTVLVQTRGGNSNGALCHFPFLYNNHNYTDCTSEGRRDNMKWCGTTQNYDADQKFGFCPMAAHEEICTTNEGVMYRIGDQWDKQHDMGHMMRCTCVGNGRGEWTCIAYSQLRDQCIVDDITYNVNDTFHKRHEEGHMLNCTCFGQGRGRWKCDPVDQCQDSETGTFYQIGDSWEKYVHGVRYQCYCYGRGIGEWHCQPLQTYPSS

In the case of “FUD: 49 amino acid FUD peptide, SEQ ID NO: 1, recombinantly expressed, His-tag removed; inhibitor of fibronectin fibrillogenesis (KDQSPLAGESGETEYITEVYGNQQNPVDIDKKLPNETGFSGNMVETEDT; human) [reference compound]”, the “effect on tumor volume” value in data set [1] is “inhibit tumor volume”. Besides, in data set [2], the cell viability is listed as 80%. The “decrease in fibroblast viability” value in data set [2] (highest concentration tested (500 nM)) is “approximately 20%”. The Kd in data set [3] came to 6 nM.
Turning to “PEG-FUD: PEGylated FUD prepared as in Example 1, PEG size not stated; approximately 27 kDa by mass spectrometry, likely the 20 kDa conjugate (KDQSPLAGESGETEYITEVYGNQQNPVDIDKKLPNETGFSGNMVETEDT; not fully specified (N-terminus); also: PEG size not given here)”, the “effect on tumor volume” value in data set [1] is listed as “inhibit tumor volume”. The substance also had a cell viability in data set [2] of 80%. The fibroblast viability result in data set [2] (doses up to 500 nM) is “approximately 100%”. Also, the Kd in data set [3] was around 10 nM.
